Measurements from the supplement of paper PMC4862054.

Key:
Conditions in all cases: incubation time: 72 h
[1] = tested on: BT-474; experiment: normalised response (% of control), CellTox Green; higher = less cell death (100 = DMSO, 0 = benzethonium chloride kill control)
Method in brief: (§1)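 Two readouts were taken after 72 h: CellTox Green fluorescence (485/520 nm) first, then CellTiter-Glo luminescence after 10 min at room temperature. Breast cancer cell lines had been seeded as 20 µl suspension into 384-well plates holding compound at 5 concentrations in 10-fold steps across a compound-specific 10,000-fold range. Each value is a normalised signal at a single concentration, with plates scaled to 0.1 % DMSO (100) and a positive kill control (0).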

[2] = tested on: BT-549; experiment: as above
Method in brief: as §1

[3] = tested on: CAL-120; experiment: as above
Method in brief: as §1

[4] = tested on: CAL-148; experiment: as above
Method in brief: as §1

[5] = tested on: CAL-51; experiment: as above
Method in brief: as §1

[6] = tested on: CAL-85-1; experiment: as above
Method in brief: as §1

[7] = tested on: DU-4475; experiment: as above
Method in brief: as §1

[8] = tested on: HCC1143; experiment: as above
Method in brief: as §1

[9] = tested on: HCC1599; experiment: as above
Method in brief: as §1

[10] = tested on: HCC1937; experiment: as above
Method in brief: as §1

[11] = tested on: HDQ-P1; experiment: as above
Method in brief: as §1

[12] = tested on: Hs578T; experiment: as above
Method in brief: as §1

[13] = tested on: MCF-10A; experiment: as above
Method in brief: as §1

[14] = tested on: MDA-MB-231; experiment: as above
Method in brief: as §1

[15] = tested on: MDA-MB-436; experiment: as above
Method in brief: as §1

[16] = tested on: MDA-MB-453; experiment: as above
Method in brief: as §1

[17] = tested on: MDA-MB-468; experiment: as above
Method in brief: as §1

[18] = tested on: MFM-223; experiment: as above
Method in brief: as §1

[19] = tested on: BT-474; experiment: normalised response (% of control), CellTiter-Glo; higher = more viable cells (100 = DMSO, 0 = benzethonium chloride kill control)
Method in brief: as §1

[20] = tested on: BT-549; experiment: as above
Method in brief: as §1

[21] = tested on: CAL-120; experiment: as above
Method in brief: as §1

[22] = tested on: CAL-148; experiment: as above
Method in brief: as §1

[23] = tested on: CAL-51; experiment: as above
Method in brief: as §1

[24] = tested on: CAL-85-1; experiment: as above
Method in brief: as §1

[25] = tested on: DU-4475; experiment: as above
Method in brief: as §1

[26] = tested on: HCC1143; experiment: as above
Method in brief: as §1

[27] = tested on: HCC1599; experiment: as above
Method in brief: as §1

[28] = tested on: HCC1937; experiment: as above
Method in brief: as §1

[29] = tested on: HDQ-P1; experiment: as above
Method in brief: as §1

[30] = tested on: Hs578T; experiment: as above
Method in brief: as §1

[31] = tested on: MCF-10A; experiment: as above
Method in brief: as §1

[32] = tested on: MDA-MB-231; experiment: as above
Method in brief: as §1

[33] = tested on: MDA-MB-436; experiment: as above
Method in brief: as §1

[34] = tested on: MDA-MB-453; experiment: as above
Method in brief: as §1

[35] = tested on: MDA-MB-468; experiment: as above
Method in brief: as §1

[36] = tested on: MFM-223; experiment: as above
Method in brief: as §1

[37] = tested on: SK-BR-3; experiment: as above
Method in brief: as §1

| SMILES | normalised response [1] | normalised response [2] | normalised response [3] | normalised response [4] | normalised response [5] | normalised response [6] | normalised response [7] | normalised response [8] | normalised response [9] | normalised response [10] | normalised response [11] | normalised response [12] | normalised response [13] | normalised response [14] | normalised response [15] | normalised response [16] | normalised response [17] | normalised response [18] | normalised response [19] | normalised response [20] | normalised response [21] | normalised response [22] | normalised response [23] | normalised response [24] | normalised response [25] | normalised response [26] | normalised response [27] | normalised response [28] | normalised response [29] | normalised response [30] | normalised response [31] | normalised response [32] | normalised response [33] | normalised response [34] | normalised response [35] | normalised response [36] | normalised response [37] |
| --- | --- | --- | --- | --- | --- | --- | --- | --- | --- | --- | --- | --- | --- | --- | --- | --- | --- | --- | --- | --- | --- | --- | --- | --- | --- | --- | --- | --- | --- | --- | --- | --- | --- | --- | --- | --- | --- |
| CO[C@H](C(=O)[C@@H](O)[C@@H](C)O)[C@@H]1Cc2cc3cc(O[C@H]4C[C@@H](O[C@@H]5C[C@@H](O)[C@H](O)[C@@H](C)O5)[C@H](O)[C@@H](C)O4)c(C)c(O)c3c(O)c2C(=O)[C@H]1O[C@H]1C[C@@H](O[C@@H]2C[C@@H](O)[C@@H](O[C@@H]3C[C@](C)(O)[C@H](O)[C@@H](C)O3)[C@@H](C)O2)[C@H](O)[C@@H](C)O1 [Plicamycin] (100 nM) | 99.4% | 98.7% | 102% | 107% | 85.5% | 99% | 102% | 101% | 106% | 119% | 94.3% | 86% | 93.4% | 109% | 96.8% | 105% | 131% | 100% | 100% | 103% | 103% | 112% | 66.4% | 100% | 105% | 104% | 99.4% | 98% | 99.5% | 104% | 108% | 104% | 103% | 114% | 105% | 103% | 102% |
| CC/C(=C(\c1ccccc1)c1ccc(OCCN(C)C)cc1)c1ccccc1 [Tamoxifen] (100 nM) | 100% | 99.3% | 103% | 106% | 115% | 105% | 105% | 113% | 103% | 91.9% | 87.8% | 97.7% | 106% | 91.3% | 74.1% | 100% | 71.4% | 103% | 97.9% | 99.2% | 110% | 110% | 91.5% | 99.9% | 105% | 108% | 101% | 100% | 105% | 105% | 107% | 107% | 99.1% | 102% | 98% | 103% | 99.4% |
